Assay results taken from PMC7552967, “Anti-Melanoma Activities of Artemisone and Prenylated Amino-Artemisinins in Combination With Known Anticancer Drugs” (Frontiers in Pharmacology, 2020).

Experiments:
A375 melanoma cells [1] = assay: Intracellular ROS, DCFH-DA assay, A375; type: cell-based, human; details: A375, 12 h treatment; result in words
Protocol: HaCat and A375 cells were seeded at 25,000 cells/well in 96-well plates (Black plate, Clear bottom, Corning, Costar®, NY, USA) and incubated until cells were ~90% confluent. Serum-free DMEM without phenol red (Thermo Fisher Scientific, Gibco, Carlsbad, CA, USA) was used for all experiments. Cells were exposed to compounds or H2O2 (500 µM) for 12 h. Cell staining with ROS fluorescent indicator 2’,7’-dichlorodihydrofluorescein diacetate (DCFH-DA) was performed 1.5 h before the end of the 12-h exposure time. A kinetic analysis was then performed at 37°C using a microplate reader (SpectraMax® ParadigmTM Molecular Devices, Sunnyvale, CA, USA) by measuring the DCF fluorescence (excitation 485 nm and emission 535 nm) every 10 min for 1 h. […] The Bradford assay (Coomassie blue colorimetric method) was then performed in order to determine the relative amount of protein per well, as an indication of cell number per well, and all fluorescence measurements were normalized relative to the cell number. The background fluorescence produced by blank medium controls and unstained but treated cell controls were subtracted from DCFH-DA stained cells. The DCF fluorescence measured at the beginning of the analysis (time 0) was subtracted from the DCF fluorescence at the indicated times for the kinetic analysis (results not shown). […]
The levels of intracellular ROS were determined using the DCFH-DA assay. […]

A375 melanoma cells [2] = assay: FITC Annexin V/PI flow cytometry, A375; type: cell-based, human; details: A375, 24 h
Protocol: The FITC Annexin V apoptosis detection kit I (BD Pharmigen™, BD Biosciences, San Jose, CA, USA) was used for the detection of apoptosis using flow cytometry. FITC Annexin V emits green fluorescence which indicates apoptosis, whereas propidium iodide (PI) emits red fluorescence and stains dead cells ([Vermes et al., 1995]). The assay was performed according to the manufacturer’s instructions with minor alterations. In brief, cells were seeded in a 96-well plate and grown to ~90% confluence. The cells were exposed to amounts of the prenylated piperazine derivatives and combinations with elesclomol-Cu(II) 1-Cu corresponding to the IC50 values. […] After incubation, 100 µl 1X binding buffer was added to each tube and then analyzed using the BD FACSVerse™ and BD FACSuite™ Software. […] At least 10,000 cellular events were analyzed for each sample. A logarithmic amplification scale was employed and events plotted on forward scatter (FSC), side scatter (SSC), green fluorescence (FL1) and red fluorescence (FL2). […]
Flow cytometry was employed to establish if the observed decrease in cell viability in melanoma cells was of necrotic or apoptotic origin. Cultured melanoma and keratinocyte cells were exposed to predetermined IC50 concentrations of the prenylated piperazine-DHA derivatives and analyzed using the FITC Annexin V/PI flow cytometry assay. […]
Figure 8 Apoptosis measured by FITC Annexin V/PI assay. […]

| SMILES | Intracellular ROS (DCF fluorescence fold change vs untreated control) (A375 melanoma cells [1]) | Late apoptosis/necrosis (FITC-Annexin V positive and PI positive) (A375 melanoma cells [2]; 45 µM) [%] | Cells undergoing apoptosis (A375 melanoma cells [2]; IC50 concentrations (6 45 µM, 7 30 µM, 1-Cu 2 nM; combinations 1:1)) [%] |
| --- | --- | --- | --- |
| CC(C)=CCC/C(C)=C/CN1CCN([C@@H]2O[C@@H]3O[C@@]4(C)CC[C@H]5[C@H](C)CC[C@@H]([C@H]2C)[C@@]35OO4)CC1 [Geranylpiperazine-DHA 6, geranylpiperazine-DHA] | not significantly higher when compared to the untreated control | 37.7 ± 2.1 |  |
| CC(C)=CCC/C(C)=C/CC/C(C)=C/CN1CCN([C@@H]2O[C@@H]3O[C@@]4(C)CC[C@H]5[C@H](C)CC[C@@H]([C@H]2C)[C@@]35OO4)CC1 [Farnesylpiperazine-DHA 7, farnesylpiperazine-DHA] | not significantly higher than the untreated control |  | 30.5 ± 3.7 |
